Experimental findings from PubChem BioAssay (NCI) are described below.

SMILES strings stand for the structures.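 Results reflect a 48-hour exposure of cells in 96-well plates to compound at five concentrations. GI50 marks 50% less growth. TGI is the concentration that stops growth completely.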

Among the test systems are SW-620 colon; OVCAR-8 ovarian; SF-268 CNS; UACC-62 melanoma; DU-145 prostate; NCI-H23 lung; UACC-257 melanoma; KM12 colon; MDA-MB-435; SF-295 CNS.
Holding throughout (assay): NCI tumour cell line growth inhibition, 48 h

`CC(=O)c1cccc(-c2cccc(-c3ccn(CCN4CCOCC4)n3)c2)c1`: the GI50 with SW-620 colon, in the assay with OVCAR-8 ovarian, with SF-268 CNS, in the assay with UACC-62 melanoma, in the assay with DU-145 prostate and with NCI-H23 lung was greater than 20 µM in each case. The GI50 in the assay with UACC-257 melanoma, with KM12 colon and in the assay on MDA-MB-435 was greater than 20 µM each time. Besides, the TGI with SW-620 colon, in the assay on OVCAR-8 ovarian, in the assay with SF-268 CNS, in the assay with UACC-62 melanoma, with DU-145 prostate and with NCI-H23 lung was greater than 20 µM in each case. The TGI in the assay on UACC-257 melanoma, with KM12 colon and with MDA-MB-435 was greater than 20 µM in each case.

In the case of `CC1=NOC(=O)C1N=Nc1ccc(Br)c(C)c1` (centres undefined), the TGI in the assay on SW-620 colon amounted to 34.7 µM; in the assay on OVCAR-8 ovarian it was 32.7 µM; in the assay on SF-268 CNS it was 47.6 µM; in the assay with UACC-62 melanoma, 37.7 µM; in the assay with SF-295 CNS it was 66.4 µM; in the assay with NCI-H23 lung it was 44.2 µM. Besides, the figures for the TGI in the assay on UACC-257 melanoma and in the assay on KM12 colon were 35.4 µM and 78 µM, respectively.

Consider `COc1ccc([C@@H](O)c2cc(-c3ncnc4cc(N5CCOCC5)ccc34)c(F)cc2Cl)nn1`, for which the GI50 was 6.78 µM with SW-620 colon; 5.92 µM in the assay with OVCAR-8 ovarian; 5.99 µM with SF-268 CNS; 1.48 µM with SF-295 CNS; 3.89 µM in the assay on DU-145 prostate; 8 µM with NCI-H23 lung. Also, the values for the GI50 in the assay on UACC-257 melanoma, in the assay with KM12 colon and with MDA-MB-435 were 1.99 µM, 5.47 µM and 4.18 µM, respectively. Also, the TGI with SW-620 colon was 52.2 µM; in the assay with OVCAR-8 ovarian, 78.4 µM; with SF-268 CNS, greater than 100 µM; in the assay on SF-295 CNS, 25.8 µM; in the assay on DU-145 prostate, greater than 100 µM; with NCI-H23 lung it was 94.6 µM. Besides, the results for the TGI in the assay with UACC-257 melanoma, in the assay with KM12 colon and with MDA-MB-435 were 30 µM, 24.1 µM and 37.4 µM, respectively.

`COC(=O)C(=O)C(C(=O)C(N)=O)c1nc2ccc(C(=O)c3ccccc3)cc2[nH]c1=O` (centres undefined): the TGI with SW-620 colon, in the assay with OVCAR-8 ovarian, with SF-268 CNS, in the assay on UACC-62 melanoma, in the assay with SF-295 CNS and in the assay on UACC-257 melanoma was greater than 100 µM each time. Moreover, the TGI in the assay on KM12 colon and in the assay with MDA-MB-435 was greater than 100 µM throughout.

With `O=C(CSc1nc(-c2ccccc2)c(-c2ccccc2)[nH]1)NNC(=S)Nc1ccccc1`, the TGI in the assay on SW-620 colon, in the assay with OVCAR-8 ovarian, in the assay with SF-268 CNS, in the assay on UACC-62 melanoma, in the assay on SF-295 CNS and in the assay with NCI-H23 lung was greater than 100 µM in each case. The TGI in the assay with UACC-257 melanoma and in the assay on KM12 colon was greater than 100 µM each time.

Regarding `COc1cc(C2c3cc4c(cc3[C@@H](OCCN(C)C)C3COC(=O)[C@H]23)OCO4)cc(OC)c1O` (some centres undefined), the TGI in the assay on SW-620 colon was 3.59 µM; in the assay with OVCAR-8 ovarian, 2.17 µM; with SF-268 CNS it was 3.83 µM; in the assay on UACC-62 melanoma, 1.38 µM; in the assay with SF-295 CNS, 0.998 µM; with NCI-H23 lung, 1.18 µM. Moreover, the TGI in the assay on UACC-257 melanoma was 8.25 µM; in the assay with KM12 colon it was 2.75 µM.

As for `Clc1ccc(-c2c(C3=NCCN3)nnn2-c2ccccc2)cc1`, the TGI in the assay with SW-620 colon, with OVCAR-8 ovarian, in the assay on SF-268 CNS, in the assay on UACC-62 melanoma, in the assay with SF-295 CNS and with NCI-H23 lung was greater than 100 µM throughout. The TGI in the assay with UACC-257 melanoma and in the assay on KM12 colon was greater than 100 µM in each case.

Take `S=P(N1CCCC1)(N1CC1)N1CC1`: the TGI in the assay on SW-620 colon, with OVCAR-8 ovarian, in the assay with SF-268 CNS, in the assay on UACC-62 melanoma, in the assay on SF-295 CNS and in the assay on NCI-H23 lung was greater than 100 µM each time. The TGI in the assay on UACC-257 melanoma and in the assay with KM12 colon was greater than 100 µM throughout.

For the compound `CC(/C=C/NNC1=NC(c2ccccc2)C(c2ccccc2)=NN1)Sc1ccccc1N` (centres undefined), the TGI came out at 7.75 µM in the assay on SW-620 colon; 19.5 µM in the assay on OVCAR-8 ovarian; 16 µM with SF-268 CNS; 10.8 µM with UACC-62 melanoma; 22.4 µM in the assay with SF-295 CNS; 29.7 µM with NCI-H23 lung. In addition, the TGI in the assay on UACC-257 melanoma came out at 19.9 µM; in the assay on KM12 colon it was 21.8 µM.

In the case of `N#Cc1c(C[n+]2ccccc2)c2ccccc2oc1=O`, the TGI in the assay on SW-620 colon, in the assay with OVCAR-8 ovarian, in the assay on SF-268 CNS, in the assay on UACC-62 melanoma, with SF-295 CNS and with NCI-H23 lung was greater than 100 µM each time. The TGI with UACC-257 melanoma and in the assay with KM12 colon was greater than 100 µM throughout.

In the case of `COc1cc2c3c(ncc2c(OC)c1OC)-c1cc2c(cc1C3)OCO2`, the GI50 with SW-620 colon is 66.4 µM; in the assay with UACC-62 melanoma, 22.4 µM; in the assay with SF-295 CNS, 29.8 µM; in the assay with DU-145 prostate, 26.9 µM; in the assay with KM12 colon, greater than 100 µM; in the assay on MDA-MB-435 it was greater than 100 µM. The TGI with SW-620 colon is greater than 100 µM; in the assay on UACC-62 melanoma it was 65.9 µM; with SF-295 CNS, greater than 100 µM; in the assay on DU-145 prostate, greater than 100 µM; with KM12 colon it was greater than 100 µM; in the assay with MDA-MB-435, greater than 100 µM.

For `COC(=O)C1Cc2c([nH]c3ccccc23)C(c2ccccc2O)N1Cc1ccccc1` (centres undefined), the TGI was greater than 46.4 µM with SW-620 colon; greater than 46.4 µM in the assay with OVCAR-8 ovarian; greater than 31.6 µM in the assay with SF-268 CNS; 33.1 µM with UACC-62 melanoma; 42.6 µM in the assay with SF-295 CNS; greater than 46.4 µM with NCI-H23 lung. Also, the values for the TGI with UACC-257 melanoma and in the assay on KM12 colon were greater than 46.4 µM and greater than 31.6 µM, respectively.

In the case of `O=c1cc(-c2ccccn2)[nH]c2cc(F)ccc12`, the TGI in the assay with SW-620 colon, with OVCAR-8 ovarian, in the assay on SF-268 CNS, in the assay on UACC-62 melanoma, in the assay on SF-295 CNS and in the assay with NCI-H23 lung was greater than 100 µM throughout. The TGI in the assay on UACC-257 melanoma and with KM12 colon was greater than 100 µM throughout. Further, the GI50 in the assay on SF-268 CNS is 29.5 µM.
